Measurements published in US20250195510A1, “NOVEL METHODS” (priority 2022, published 2025).

Assays:
[1] = test system: Serum cytokine concentration; assay: Serum cytokine protein (Multiplex MSD V-Plex) after LPS and lumateperone; format: in vivo, mouse
Description: All other reagents are obtained in the highest purity available from Sigma-Aldrich (St. Louis, MO) unless otherwise noted. […] Sigma-Aldrich, ref #0127: B8) diluted in 0.9% injectable saline while control group animals receive injections of all vehicles matching the experimental conditions. […] Tissue Collection. […] Rats are euthanized 18 hours after LPS injection for sample collection. Hippocampi from mice and rats are rapidly dissected under RNAse-free conditions and placed in 1.5 mL Eppendorf tubes. When appropriate, samples are snap frozen in liquid nitrogen prior to storage at −80° C. until further analysis. […] Multiplex Assays. […] All samples are run in duplicates or triplicates according to manufacturer instructions and analyzed with MSD Discovery Workbench software (Meso Scale Diagnostics). […] An additional experimental group receiving an injection with lumateperone alone is included as an additional control. Protein concentration is measured using the Multiplex MSD assay V-Plex technology. Results are expressed in pg/mL, except for IL-6, which is measured in ng/mL.

[2] = test system: inflammatory biomarkers in PBMCs; assay: Post-hoc analysis of inflammatory biomarkers in PBMCs, phase 3 trial, schizophrenia with co-morbid depression; format: in vivo, human; conditions: Day 28, 60 mg lumateperone tosylate once daily
Description: A randomized, double-blind, placebo-controlled, phase 3 clinical trial was conducted with 450 patients with schizophrenia, aged 18 to 60 years, who were experiencing an acute exacerbation of psychosis. Patients were included if they were experiencing an acute exacerbation of psychosis, defined as a total score on the Brief Psychiatric Rating Scale of […] or higher, with a score of 4 or higher on 2 or more positive symptoms, and onset of the acute episode within 4 weeks of screening. Patients were required to have a score of 4 or higher, indicating moderate to severe disease severity, on the Clinical Global Impression-Severity of Illness (CGI-S) at screening and baseline. Severity of illness was confirmed at baseline by a Positive and Negative Syndrome Scale (PANSS) total score of 70 or higher, indicating moderate to extreme symptoms of schizophrenia. A subgroup of these patients experienced co-morbid depression symptoms at baseline (defined as having a Calgary Depression Scale for Schizophrenia (CDSS) score greater than 6 at baseline). Full details of the clinical study were reported in Correll et al., JAMA Psychiatry, 77 (4): 349-358 (2020).
Patients were randomized 1:1:1 (150 patients in each arm) to receive, once daily for 28 days, cither 60 mg lumatepcrone tosylate (42 mg free base), 40 mg lumatepcrone tosylate (28 mg free base), or placebo.
Using blood samples stored from the study, a post-hoc analysis of inflammatory biomarkers in PBMCs from the patients with schizophrenia and co-morbid depression is conducted. […] Day 0 samples are available for 20 patients, while day 28 samples are available only for 18 patients. Mean baseline CDSS is 10.0, and mean baseline PANSS total score is 88.7 in the selected patients.
Samples were processed to isolate PBMC according to standard procedures using the Ficoll-Paque method. Statistical analysis was performed using the paired t-test, two-tailed. Samples were tested for C-reactive protein (CRP), serum amyloid A (SAA), soluble ICAM-1, soluble VCAM-1, IL-1β, TNF-α, IL-6, IL-10, IL-2, IL-8, IL-13, and IFN-γ. ICAM-1 and VCAM-1 are expressed by the vascular endothelium, macrophages, and lymphocytes. Upon cytokine stimulation, their concentrations greatly increase. ICAM-1 can be induced by IL-1ß and TNF. ICAM and VCAM proteins may also be involved in pathogen transit into CNS.
The results are shown in the table below (biomarker levels expressed in ng/ml; some values of N are less than the patient totals due to samples with levels of biomarker below the minimum for quantification): […]

[3] = test system: Serum cytokine concentration; assay: Serum cytokine protein (Multiplex MSD) after acute restraint stress; format: in vivo, mouse; conditions: restraint stress 2 h + Luma 3 mg/kg IP
Description: Multiplex Assays. In mouse serum, protein levels of IL-1b, IL-6, IL-10 and TNF-alpha are measured using a V-Plex Meso Scale Discovery (MSD) Multiplex spot assay Mouse Neuroinflammation 1 panel (Meso Scale Diagnostics, Rockville, MD). All samples are run in duplicates or triplicates according to manufacturer instructions and analyzed with MSD Discovery Workbench software (Meso Scale Diagnostics).
Restraint Stress Protocol.
Control mice receive vehicle treatment and are returned to their home cage before sample collection. Protein concentration is measured using the Multiplex MSD assay V-Plex technology, normalized to the control group. Results are expressed in pg/mL.

SMILES: CN1CCN2c3c(cccc31)[C@@H]1CN(CCCC(=O)c3ccc(F)cc3)CC[C@@H]12 [Lumateperone, 4-((6bR,10aS)-3-methyl-2,3,6b,9,10,10a-hexahydro-1H-pyrido[3′,4′: 4,5]pyrrolo[1,2,3-de]quinoxaline-8 (7H)-yl)-1-(4-fluorophenyl)-1-butanone]
- Serum IL-1b concentration ([1]; LPS 500 μg/kg + Luma 3 mg/kg, LPS alone 6.27): 2.69 pg/mL
- Serum IL-6 concentration ([1]; LPS 500 μg/kg + Luma 3 mg/kg, LPS alone 14.52): 1.49 ng/mL
- Serum TNF-alpha concentration ([1]; LPS 500 μg/kg + Luma 3 mg/kg, LPS alone 335.3): 56.33 pg/mL
- Serum IL-10 concentration ([1]; LPS 500 μg/kg + Luma 3 mg/kg, LPS alone 980.4): 1014.3 pg/mL
- Serum IL-6 concentration ([1]; Luma 3 mg/kg alone, no LPS, saline only 0.51): 0.09 ng/mL
- Serum IL-1b concentration ([1]; Luma 3 mg/kg alone, no LPS, saline only 1.32): 1.47 pg/mL
- Serum TNF-alpha concentration ([1]; Luma 3 mg/kg alone, no LPS, saline only 14.08): 9.38 pg/mL
- Serum IL-10 concentration ([1]; Luma 3 mg/kg alone, no LPS, saline only 24.80): 48.93 pg/mL
- IL-10 level in PBMC, Median ([2]; Day 0 0.07): 0.21 ng/mL
- IL-10 level in PBMC, Average ([2]; Day 0 0.09): 2.14 ng/mL
- IL-2 level in PBMC, Median ([2]; Day 0 0.17): 0.25 ng/mL
- IL-2 level in PBMC, Average ([2]; Day 0 0.18): 0.37 ng/mL
- IL-6 level in PBMC, Median ([2]; Day 0 0.18): 0.32 ng/mL
- IL-6 level in PBMC, Average ([2]; Day 0 0.20): 0.55 ng/mL
- TNF-α level in PBMC, Average ([2]; Day 0 0.27): 0.83 ng/mL
- TNF-α level in PBMC, Median ([2]; Day 0 0.27): 0.43 ng/mL
- IFN-γ level in PBMC, Median ([2]; Day 0 1.01): 0.71 ng/mL
- IFN-γ level in PBMC, Average ([2]; Day 0 1.11): 0.86 ng/mL
- IL-13 level in PBMC, Median ([2]; Day 0 1.11): 1.56 ng/mL
- IL-13 level in PBMC, Average ([2]; Day 0 1.31): 2.38 ng/mL
- IL-1β level in PBMC, Median ([2]; Day 0 1.65): 0.74 ng/mL
- IL-1β level in PBMC, Average ([2]; Day 0 1.76): 1.01 ng/mL
- IL-8 level in PBMC, Median ([2]; Day 0 36.3): 44.0 ng/mL
- sVCAM-1 level in PBMC, Median ([2]; Day 0 60.1): 42.0 ng/mL
- CRP level in PBMC, Median ([2]; Day 0 61.3): 38.0 ng/mL
- IL-8 level in PBMC, Average ([2]; Day 0 74.5): 105.3 ng/mL
- CRP level in PBMC, Average ([2]; Day 0 78.8): 50.5 ng/mL
- sVCAM-1 level in PBMC, Average ([2]; Day 0 78.9): 49.1 ng/mL
- sICAM-1 level in PBMC, Median ([2]; Day 0 136.9): 83.6 ng/mL
- sICAM-1 level in PBMC, Average ([2]; Day 0 184.8): 119.6 ng/mL
- SAA level in PBMC, Median ([2]; Day 0 233.6): 147.3 ng/mL
- SAA level in PBMC, Average ([2]; Day 0 286.9): 157.9 ng/mL
- Serum IL-1b concentration ([3]; control 0.7, stressed 1.65): 0.81 pg/mL
- Serum TNF-alpha concentration ([3]; control 6.75, stressed 10.28): 7.67 pg/mL
- Serum IL-10 concentration ([3]; control 17.18, stressed 86.78): 70.03 pg/mL
- Serum IL-6 concentration ([3]; control 141.3, stressed 627.4): 137.7 pg/mL
